The values below come from article PMC3288109, “γ-Aminobutyric Acid Transporter 2 Mediates the Hepatic Uptake of Guanidinoacetate, the Creatine Biosynthetic Precursor, in Rats” (PLoS ONE, 2012).

Data set [1] addresses T1, GAT2 (γ-aminobutyric acid transporter 2, SLC6A13) (Rattus norvegicus, UniProt P31646).
T1 sequence (P31646 1-602): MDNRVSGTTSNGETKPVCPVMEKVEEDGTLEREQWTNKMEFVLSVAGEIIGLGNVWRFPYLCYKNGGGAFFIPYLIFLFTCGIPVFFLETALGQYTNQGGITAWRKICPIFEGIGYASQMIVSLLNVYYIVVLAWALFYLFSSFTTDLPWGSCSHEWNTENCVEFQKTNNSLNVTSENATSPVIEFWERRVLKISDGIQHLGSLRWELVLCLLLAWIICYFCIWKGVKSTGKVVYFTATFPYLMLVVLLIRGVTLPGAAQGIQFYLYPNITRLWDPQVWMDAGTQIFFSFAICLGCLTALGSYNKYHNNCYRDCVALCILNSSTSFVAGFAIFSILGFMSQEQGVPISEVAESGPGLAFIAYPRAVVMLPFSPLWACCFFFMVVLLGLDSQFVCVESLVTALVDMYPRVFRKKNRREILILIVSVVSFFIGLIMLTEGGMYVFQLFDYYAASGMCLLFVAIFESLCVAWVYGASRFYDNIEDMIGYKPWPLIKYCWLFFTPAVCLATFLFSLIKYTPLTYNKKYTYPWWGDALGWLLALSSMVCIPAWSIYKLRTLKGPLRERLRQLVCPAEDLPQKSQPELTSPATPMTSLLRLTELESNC
As to the kind of experiment: cell-based. On the set-up: rat GAT2 open reading frame cRNA expressed in Xenopus laevis oocytes; species or system Xenopus laevis oocytes; Inhibition of [14C]GAA (45 uM) uptake by rat GAT2 cRNA-injected oocytes, 20 C, scintillation counting. Particulars: Oocyte; [14C]GAA 45 uM, 1 h, 20 C; read-out: % of control / 100±7. The protocol:
Using T7 RNA polymerase, capped cRNA was transcribed from NotI-linearized pGEM-HEN containing an open reading frame of rat GAT2 cDNA. Defolliculated oocytes were injected with 23 nL water or the capped cRNA (30–50 ng) and incubated at 18°C in freshly prepared standard oocyte saline solution containing 100 mM NaCl, 2 mM KCl, 1.8 mM CaCl2, 1 mM MgCl2, and 5 mM HEPES, 25 µg/mL gentamycin, 2.5 mM pyruvate and 1% bovine serum albumin, pH 7.5. The standard oocyte saline solution used to incubate the oocytes was replaced with fresh solution daily. Experiments were performed after incubation for 4 to 6 days. For the uptake study by Xenopus laevis oocytes, oocytes were preincubated with 500 µL ND96 solution containing (in mM) 96 NaCl, 2 KCl, 1.8 CaCl2, 1 MgCl2, and 5 HEPES for 20 min at 20°C before the uptake experiment. The uptake experiment was initiated by replacing the ND96 solution with 200 µL of the same solution containing [^14C]GAA (45 µM) […] [^14C]creatine (45 µM). After incubation for a designated time at 20°C, the uptake was terminated by addition of ice-cold ND96 solution. […] The inhibitory effects of GAT substrates and inhibitors on the [^14C]GAA uptake were further examined (Figure 3B and Table 3).

The subject of data set [2] is T2, freshly isolated rat hepatocytes.
T2 construct: Wistar primary hepatocytes, collagenase perfusion
As to the kind of experiment: cells. On the set-up: species or system primary rat hepatocytes; Inhibition of [14C]GAA (18 uM) uptake by freshly isolated rat hepatocytes, 37 C, scintillation counting. Particulars: Hepatocyte, 0.05 h, [14C]GAA 18 uM, 3 min, 37 C, read-out: % of control remaining. From the text:
Rat hepatocytes were isolated by collagenase perfusion and Percoll isodensity centrifugation as described previously. The hepatocytes were resuspended in Tyrode buffer containing (in mM) 137 NaCl, 2.7 KCl, 1.05 MgCl2, 1.8 CaCl2, 12 NaHCO3, 0.4 NaH2PO4, and 5.6 D-glucose. Uptake of [^14C]GAA or [^14C]creatine by the freshly isolated hepatocytes was examined according to the methods described previously. In brief, after centrifugation and aspiration of the buffer, uptake was initiated by applying 100 µL Tyrode buffer containing [^14C]GAA or [^14C]creatine at 37°C in the presence or absence of inhibitors. Na^+-free Tyrode buffer was prepared by replacement of NaCl, NaH2PO4 and NaHCO3 with equimolar N-methyl-D-glucamine, KH2PO4, and KHCO3, respectively. Cl^−-free uptake buffer was prepared by replacement with equimolar gluconate. After a predetermined period, uptake was terminated by centrifugation of the solution. The cells were then solubilized in 1 N NaOH and subsequently neutralized with 1 N HCl. The cell-associated radioactivity and protein content were assayed by [compound left out] scintillation spectrometry and detergent compatible protein assay (a DC protein assay kit, Bio-Rad, Hercules, CA) with bovine serum albumin as a standard. […] In contrast, there was no time-dependent increase in [^14C]creatine uptake by hepatocytes (Figure 2A). […] The [^14C]GAA uptake took place in a concentration-dependent manner and consisted of a single saturable component (Figure 2B). […] In contrast, creatinine, betaine, guanidinosuccinic acid, L-arginine, L-alanine, and L-serine had much weaker effects. GABA, taurine, and creatine inhibited the [^14C]GAA uptake in a concentration-dependent manner with an IC50 value of 8.81±1.33 µM, 1.13±0.30 mM, and 1.42±0.53 mM, respectively (Figure 2C–E). […] Among the GAT subtypes, GAT2 is predominantly expressed in rat liver. […] [^14C]GAA uptake was reduced by 46.4% in GAT2-silenced hepatocytes corresponding to the reduction in GAT2 protein (Figure 2F).

Data set [3] has as its target T1, GAT2 (γ-aminobutyric acid transporter 2, SLC6A13). Format: cell-based. Particulars: xenopus oocytes.
Substrate in data set [4]: N=C(N)NCC(=O)O
As to the kind of experiment: cells, lysate or membranes. The format is cell-based, Rattus norvegicus. Conditions: Na+ and Cl-.

Consider `C[N+](C)(C)CC(=O)O` [Betaine], for which the remaining activity at 5000 µM in data set [1] came out at 96.7 ± 7.4%. Also, the activity at 2000 µM in data set [2] stood at 64.4 ± 8.7%.

On to `CN(CC(=O)O)C(=N)N` [Creatine], for which, in data set [1], the remaining activity at 5000 µM was 57.3 ± 8.3%. The “[14C]creatine uptake by GAT2-expressing oocytes; also 57.3% of control [14C]GAA” value in data set [3] is recorded as 28 fold over water-injected oocytes.

In the case of `[H]/N=C(/N)NCC(=O)O` [Guanidinoacetic acid], in data set [2], the activity at 2000 µM stood at 24.1 ± 1.1%.

`O=C(O)C1CCCNC1` (stereo not drawn) [Nipecotic acid]: the remaining activity at 5000 µM in data set [1] was 11.9 ± 1.5%. The activity at 2000 µM in data set [2] came out at 30.8 ± 1.2%.

As for `NCCCC(=O)O` [GABA], in data set [1], the remaining activity at 5000 µM was 1.74 ± 0.44%. For the same molecule, in data set [2], the activity at 2000 µM worked out at 17.1 ± 1.6%.

For the molecule `NC(N)=N[C@@H](CC(=O)O)C(=O)O` [Guanidinosuccinic acid], the remaining activity at 5000 µM in data set [1] is 148 ± 11%. Besides, in data set [2], the activity at 2000 µM came to 71.2 ± 5.1%.

Regarding `N[C@@H](CO)C(=O)O` [L-Serine], in data set [2], the activity at 2000 µM was 83.8 ± 6.4%.

With `NCCS(=O)(=O)O` [Taurine], the remaining activity at 5000 µM in data set [1] amounted to 16.6 ± 4.4%.

In the case of `CN1CC(=O)NC1=N` [Creatinine], the remaining activity at 5000 µM in data set [1] is 147 ± 18%. In data set [2], the activity at 2000 µM was found to be 75.3 ± 8.9%.

Regarding `C[C@H](N)C(=O)O` [L-Alanine], the remaining activity at 5000 µM in data set [1] came to 138 ± 18%. Also, in data set [2], the activity at 2000 µM came to 59.6 ± 7.8%.

Regarding `N=C(N)NCCCC(=O)O` [γ-Guanidinobutyric acid], the remaining activity at 5000 µM in data set [1] came to 2.35 ± 0.23%.

As to `[H]/N=C(\N)NCCC(=O)O` [β-Guanidinopropionic acid], the remaining activity at 5000 µM in data set [1] was 0.81 ± 0.07%. In data set [2], the activity at 2000 µM came to 18.9 ± 0.9%.

Turning to `NCC(=O)O` [Glycine], the activity at 2000 µM in data set [2] was determined as 54.4 ± 11.2%.

Take `N=C(N)NCCS(=O)(=O)O` [Guanidinoethansulfonic acid]: the remaining activity at 5000 µM in data set [1] turned out to be 11 ± 1.2%. For the same molecule, the activity at 2000 µM in data set [2] is 33 ± 4.4%.

`NCCC(=O)O` [β-Alanine]: the activity at 2000 µM in data set [2] turned out to be 28.5 ± 5.5%.

`N=C(N)NCCC[C@H](N)C(=O)O` [L-Arginine]: the remaining activity at 5000 µM in data set [1] came out at 137 ± 15%. In addition, the activity at 2000 µM in data set [2] was found to be 74.9 ± 11.1%.

B1: GAT2 (γ-aminobutyric acid transporter 2, SLC6A13) (Rattus norvegicus) (protein)
chain: T1 sequence (P31646 1-602)
notes: rat GAT2 open reading frame cRNA expressed in Xenopus laevis oocytes
The term Km denotes the substrate concentration at which the rate is half of its maximum. Turning to B1, the Km in data set [4] is listed as 78.9 µM.
